Series [1] relates to THP-1 cells. As to the kind of experiment: h-CLAT assay on THP-1 cells: markers against OECD cut-off, prediction, cell viability. The class given is cell-based, human. As to conditions: for CD54 and CD86 marker expression against OECD cut-off: 8 doses based on CV75, 24 h. The method, then: The assay was conducted as per the literature (Toxicol In Vitro, 2006, 20, 767-73). THP-1 cells were cultured in 24-well plates (1×10^6 cells/1 mL/well) with various concentrations of each chemical (N1-N13), +ve control (DNCB), −ve control for 24 h.
THP-1 cells were cultured in 24-well plates (1×10^6 cells/mL/well) and treated with recommended concentrations of each chemical (N1-N13), positive control (DNCB) or negative control (SLS) for 24 h. THP-1 cells were cultured and treated with 8 doses of N1-N13 based on the CV75 namely, 1.2×CV75, 1×CV75, 1/1.2×CV75, 1/1.2^2×CV75, 1/1.23×CV75, 1/1.24×CV75, 1/1.2^5×CV75 and 1/1.2^6×CV75. After 24 h, cells were transferred to 1.5 mL of microtubes and centrifuged at 450 g, 5 min, 4° C. Supernatant was discarded and cells were washed with 1 mL of FACS buffer (PBS+FBS+HEPES). The cells were centrifuged at 450 g, 5 min, 4° C. 50 μL of Fc block (0.01% of Globlins Cohn fraction II, III) was added and incubated for 10 min at 4° C. The cells were stained with 20 μL APC CD54 (Mouse IgG1, K, BD Biosciences, San Diego, CA, USA), 20 μL FITC CD86 (Mouse IgG1, K, BD Biosciences, San Diego, CA, USA) or their respective isotype controls and incubated for 15 min at room temperature in dark. After incubation, the antibodies were diluted with 200 μl FACS buffer. The cells were washed with 1 mL FACS buffer twice. Further, 200 μL Propidium iodide (PI, 0.625 μg/mL) prepared in FACS buffer was added before the flow cytometry analysis. Flow cytometric analysis was performed with BD LSR Fortessa™ (Becton Dickinson, San Jose, CA, USA) In total, 10,000 living cells were analysed, and data were processed using Flowjo software (v10.6, Ashland, OR, USA). The test concentration providing a cell viability of 75% (CV75) was derived from the dose response curve and was calculated by log-linear interpolation.
Geometric mean fluorescence intensity (MFI) was measured for CD54^+ and CD86^+ cells separately and percentage relative fluorescence intensity (% RFI), reflective of CD86 and CD54 relative expression was calculated as described below. RFI was not calculated if cell viability fell below 50%.
All chemicals were tested in three independent experiments. If in two of three independent experiments at any dose exceeded 150% RFI for CD86, or 200% RFI for CD54, the chemicals could be identified as a sensitizer. Otherwise it is identified as a non-sensitizer.

Series [2] is described as follows: Thermodynamic solubility assay (modified shake flask, LC-MS/MS). The settings on record: Milli-Q water, pH=7, 25° C., 24 h, 3 separate determinations; for solubility at 24 h: 25 °C, pH 7, water, thermodynamic from solid. The method, then:
The aqueous solubilities (pH=7) of these compounds were measured using the modified shake flask method and LC-MS/MS. Each hair dye was added into a 2 mL glass vial containing Milli-Q water (1 mL) to form the precipitates at 25° C. Then the mixture was subjected to a solubility-equilibrium stage. The vials were shaken at 300 rpm at 25° C. for 24 h. The precipitate was separated by centrifugation at 23,000 g for 20 min. Subsequently, 0.5 mL of supernatant was transferred into a 1 mL Eppendorf tube, and it was centrifuged again as mentioned above. The supernatant was then used for LC-MS/MS analysis.
The mass spectrometric analysis was performed by use of a AB SCIEX QTRAP 5500 tandem mass spectrometry (MS/MS) system (AB SCIEX, Framingham, MA, USA) operating in triple quadrupole positive mode (ESI+) equipped with an AB Sciex Turbo Ion Spray interface. Acquisition and analysis of data were performed with Analyst software ver. 1.4.2 (Applied Biosystems) which performed all chromatographic peak integration. For each hair dye, a standard curve consisting of four concentrations was established.
Solvent A was composed of 0.1% [v/v] formic acid in Milli-Q water while solvent B was composed of 0.1% [v/v] formic acid in acetonitrile. A mobile phase gradient pumped at 0.6 mL/min was used to elute the hair dyes from the column. The column was equilibrated for 1 min resulting in a total run time of 5 min. The injection volume was 5.0 μL for all derivatives. To prevent compound accumulation on the needle, 50% methanol in ACN was used as needle wash for 30 s per sample.

Series [3] concerns THP-1 cells. As to the kind of experiment: MTT assay on THP-1 cells (CV75). As to conditions: THP-1 cells, 24 h. The class given is cell-based, human. The method, then:
THP-1 (human acute monocytic leukaemia cell line) cell suspension was adjusted to 1×10^5 cells per well and seeded in 96-well plates. The plate was incubated at 37° C. with 5% CO2. After 24 h, 10 mM stock solutions of N1-N13 were prepared in autoclaved milli-Q water. A series of concentrations diluted in media was prepared and added to the wells. Each concentration was performed in 6-replicates, and seeded wells with only media and no compound were used as controls while wells with only media were used as blanks. The plate was incubated for 24 h, after which 100 μL of MTT reagent was added and the plate was further incubated for 3 h before adding 100 μL of DMSO. Subsequently, the plate was shaken for 20 min, and then absorbance at 570 nm was determined using a Bio-Tek plate reader. Percentage cell viability was calculated and CV75 values were determined.
Background: Tetrazolium dyes change colour on reduction, which living cells bring about.

Series [4] relates to HaCaT cells. As to the kind of experiment: MTT assay on HaCaT cells. In kind it is cell-based. As to conditions: Homo sapiens, 72 h. The method, then:
HaCaT (human, adult, low calcium, high temperature, skin keratinocyte) cell suspension was adjusted to 5×10^3 cells per well and seeded in 96-well plates, then incubated at 37° C. with 5% CO2. After 24 h, 10 mM stock solutions of N1-N13 in autoclaved milli-Q water were prepared and serially diluted concentrations were added to the wells. Each concentration was performed in 6-replicates, and seeded wells with only media and no compound were used as controls while wells with only media were used as blanks. The plate was incubated for 72 h, after which 100 μL of MTT reagent was added and the plate was further incubated for 3 h before adding 100 μL of DMSO. Subsequently, the plate was shaken for 20 min, and then absorbance at 570 nm was determined using a Bio-Tek plate reader.

The mark [5] stands for this setting: HaCaT cells, MTT, read-out: IC50.

SMILES strings stand for the structures. Values after ≈ are worked out from the molar mass of the structure shown. Like-named read-outs stand apart in the source and are kept apart here. A value given as a limit tells only on which side of the number the result lay.

Broadly, the solubility is the concentration that dissolves in the medium under given conditions. A word on the Solubility: it is the concentration that dissolves in the medium under given conditions. Read a high Solubility as much dissolved substance. For orientation: IC50 means the point on the concentration scale where inhibition reaches its midpoint. Turning to `COC(COc1cc(N)ccc1N)OC` [Compound N1, 2-(2,2-dimethoxyethoxy)benzene-1,4-diamine], the “CD54 and CD86 marker expression against OECD cut-off” value (“CD54 and CD86 marker expression” below) in series [1] was “did not express the markers at any tested dose level”. Also, in series [2], the solubility at 24 h was 78 to 100 mg/mL (≈ 367 to 471 mM) and the Solubility was 85 + 4.0 mg/ml. Besides, the “CV75 (concentration affording 75% cell viability), 1 × CV75” value in series [3] was determined as 143.4 µg/mL. Further, the IC50 in series [4] (setting [5]) turned out to be 508 µM.

Consider `COCOc1cc(N)ccc1N` [Compound N2, 2-(methoxymethoxy)benzene-1,4-diamine], for which, in series [1], the “marker induction, times lower than DNCB” value is 3. Moreover, in series [2], the solubility at 24 h was 78 to 100 mg/mL (≈ 464 to 595 mM) and the Solubility is 90 + 2.6 mg/ml. The “CV75 (concentration affording 75% cell viability), 1 × CV75” value in series [3] worked out at 72.4 µg/mL. Besides, the IC50 in series [4] (setting [5]) is 297 µM.

Regarding `CCOCOc1cc(N)ccc1N` [Compound N3, 2-(ethoxymethoxy)benzene-1,4-diamine], the “marker induction, times lower than DNCB” value in series [1] is recorded as 3. Also, in series [2], the solubility at 24 h lay in the range of 65 to 72 mg/mL (≈ 357 to 395 mM) and the Solubility is 65 + 3.6 mg/ml. Further, the “CV75 (concentration affording 75% cell viability), 1 × CV75” value in series [3] is 115 µg/mL. Besides, the IC50 in series [4] (setting [5]) was found to be 457 µM.

For the molecule `Nc1ccc(N)c(OCC2CO2)c1` (centres unmarked) [Compound N4, 2-(oxiran-2-ylmethoxy)benzene-1,4-diamine], the “CD54 and CD86 marker expression” value in series [1] is reported as “did not express the markers at any tested dose level”. Also, in series [2], the solubility at 24 h is 65 to 72 mg/mL (≈ 361 to 400 mM) and the Solubility is listed as 70 + 4.6 mg/ml. The “CV75 (concentration affording 75% cell viability), 1 × CV75” value in series [3] turned out to be 62.3 µg/mL. In series [4] (HaCaT), this molecule registered an IC50 of 578 µM.

As to `COCCOCCOc1cc(N)ccc1N` [Compound N5, 2-[2-(2-methoxyethoxy)ethoxy]benzene-1,4-diamine], the “CD54 and CD86 marker expression” value in series [1] was “failed to induce marker expression above the recommended % RFI cut-off”. Further, in series [2], the solubility at 24 h was 78 to 100 mg/mL (≈ 345 to 442 mM) and the Solubility was 85 + 2.5 mg/ml. In addition, in series [3], the “CV75 (concentration affording 75% cell viability), 1 × CV75” value was determined as 68.3 µg/mL. The IC50 in series [4] (setting [5]) was determined as 43.3 µM.

As to `N#CCOc1cc(N)ccc1N` [Compound N6, 2-(2,5-diaminophenoxy)acetonitrile], the “marker induction, times lower than DNCB” value in series [1] (human, 24 h) is recorded as 3. The “CV75 (concentration affording 75% cell viability), 1 × CV75” value in series [3] came to 123.7 µg/mL. The same molecule displayed an IC50 in series [4] (HaCaT) above 1000 µM.

As to `COCCOc1cc(N)ccc1N` [Compound N7, 2-(2-methoxyethoxy)benzene-1,4-diamine], the “CD54 and CD86 marker expression” value in series [1] is on record as “failed to induce marker expression above the recommended % RFI cut-off”. In series [2], this molecule displayed a solubility at 24 h of 65 to 72 mg/mL (≈ 357 to 395 mM) and a Solubility of 62 mg/mL (≈ 340 mM). Besides, the “CV75 (concentration affording 75% cell viability), 1 × CV75” value in series [3] turned out to be 44.6 µg/mL. Also, the IC50 in series [4] (setting [5]) stood at 33.5 µM.

Take `Nc1ccc(N)c(OCOCO)c1` [Compound N8, ((2,5-diaminophenoxy)methoxy)methanol]: the “CD54 and CD86 marker expression” value in series [1] is given as “failed to induce marker expression above the recommended % RFI cut-off”. For the same molecule, in series [2], the solubility at 24 h lay within 78 to 100 mg/mL (≈ 423 to 543 mM) and the Solubility is 92 + 3.0 mg/ml. Further, the “CV75 (concentration affording 75% cell viability), 1 × CV75” value in series [3] is 141 µg/mL. In series [4] (setting [5]), the IC50 was 219 µM.

With `Nc1ccc(N)c(OCCO)c1` [Compound N9, 2-(2,5-diaminophenoxy)ethan-1-ol], the “CD54 and CD86 marker expression” value in series [1] is “failed to induce marker expression above the recommended % RFI cut-off”. Moreover, in series [2], the solubility at 24 h was 65 to 72 mg/mL (≈ 386 to 428 mM) and the Solubility was 72 + 3.4 mg/ml. Moreover, the “CV75 (concentration affording 75% cell viability), 1 × CV75” value in series [3] is 126 µg/mL. Besides, the IC50 in series [4] (setting [5]) worked out at 272 µM.

Turning to `CC(O)COc1cc(N)ccc1N` (centres unmarked) [Compound N10, 1-(2,5-diaminophenoxy)propan-2-ol], in series [1], the “CD54 and CD86 marker expression” value is reported as “did not express the markers at any tested dose level”. In addition, in series [2], the solubility at 24 h was in the range of 78 to 100 mg/mL (≈ 428 to 549 mM) and the Solubility is 78 + 2.5 mg/ml. In addition, in series [3], the “CV75 (concentration affording 75% cell viability), 1 × CV75” value came to 117 µg/mL. Further, the IC50 in series [4] (setting [5]) stood at 283 µM.

On to `CCC(=O)COc1cc(N)ccc1N` [Compound N11, 1-(2,5-diaminophenoxy)butan-2-one], for which, in series [1], the “CD54 and CD86 marker expression” value is “did not express the markers at any tested dose level”. This molecule yielded a solubility at 24 h in series [2] of 45 mg/mL (≈ 232 mM). In addition, in series [3], the “CV75 (concentration affording 75% cell viability), 1 × CV75” value was 65.4 µg/mL. In series [4] (setting [5]), the IC50 stood at 196 µM.

As for `C=C(C)Oc1cc(N)ccc1N` [Compound N12, 2-(prop-1-en-2-yloxy)benzene-1,4-diamine], the “CD54 and CD86 marker expression” value in series [1] was “failed to induce marker expression above the recommended % RFI cut-off”. The solubility at 24 h in series [2] is 32 mg/mL (≈ 195 mM). Besides, the “CV75 (concentration affording 75% cell viability), 1 × CV75” value in series [3] is 44.7 µg/mL. For the same molecule, in series [4] (setting [5]), the IC50 worked out at 127 µM.

In series [2], `CNCCOc1cc(N)ccc1N` [Compound N13, 2-(2-(methylamino)ethoxy)benzene-1,4-diamine] showed a solubility at 24 h of 38 mg/mL (≈ 210 mM). Besides, the “CV75 (concentration affording 75% cell viability), 1 × CV75” value in series [3] turned out to be 54.3 µg/mL. Besides, the IC50 in series [4] (setting [5]) came out at 120 µM.

These data come from US20240197596A1, “COMPOUNDS USEFUL AS HAIR DYES” (National University of Singapore, priority 2021, published 2024).
